Experimental findings from ChEMBL document CHEMBL3351362, “In vitro antiparasitic activity of new thiosemicarbazones in strains of Trypanosoma cruzi” (Eur J Med Chem, 2014) are described below.

Data set [1] can be described thus: Induction of apoptosis in human platelets assessed as viable cells after 10 mins using Annexin V/propidium iodide by flow cytometry (reference value: 89.61 %). In kind it is cell-based, Platelet. To be noted: read-out: Activity.
Data set [2] in a line: Induction of apoptosis in human monocytes assessed as necrotic cells using Annexin V/propidium iodide by flow cytometry (reference value: 0.02 %). Particulars: monocyte. It is filed as cell-based.
A short description of data set [3]: Induction of apoptosis in human monocytes assessed as early apoptotic cells using Annexin V/propidium iodide by flow cytometry (reference value: 2.18 %). In kind it is cell-based. Particulars: monocyte.
Data set [4] in a line: Activation of human platelets assessed as CD62P expression at 3.9 ug/ml by flow cytometry relative to control. In kind it is cell-based. Particulars: platelet.
Data set [5] in a line: Induction of apoptosis in human platelets assessed as early apoptotic cells after 10 mins using Annexin V/propidium iodide by flow cytometry (reference value: 10.30 %). It is filed as cell-based. To be noted: platelet.
The test system of data set [6] is Trypanosoma cruzi. The experiment in a line: Trypanocidal activity against epimastigote forms of Trypanosoma cruzi Punta Lobos after 24 hrs. In kind it is functional.
Data set [7] is described as follows: Induction of apoptosis in human monocytes assessed as late apoptotic cells using Annexin V/propidium iodide by flow cytometry (reference value: 0.27 %). It is filed as cell-based. To be noted: monocyte.
The nature of data set [8]: Induction of apoptosis in human platelets assessed as necrotic cells after 10 mins using Annexin V/propidium iodide by flow cytometry (reference value: 0.07 %). Particulars: platelet. In kind it is cell-based.
A short description of data set [9]: Induction of apoptosis in human monocytes assessed as viable cells using Annexin V/propidium iodide by flow cytometry (reference value: 97.53 %). It is filed as cell-based, Monocyte. To be noted: read-out: Activity.
A short description of data set [10]: Induction of apoptosis in human platelets assessed as late apoptotic cells after 10 mins using Annexin V/propidium iodide by flow cytometry (reference value: 0.02 %). It is filed as cell-based. Particulars: platelet.
Data set [11] deals with Trypanosoma cruzi. Kind of data set: Trypanocidal activity against epimastigote forms of Trypanosoma cruzi Queretaro after 24 hrs. It is filed as functional.

Converted amounts (≈) assume the structure as drawn.

With `NC(=S)N/N=C/c1ccc(Sc2ccccc2C(F)(F)F)o1`, the viability at 10 min in [1] was found to be 82.6%. For the same compound, the Activity was found to be 0.24% in data set [2]; 26.47% in [3]; 22.14% in data set [4]; 17.31% in [5]; 2.63% in data set [7]; 0.05% in [8]. In addition, the Activity in [10] amounted to 0.06%. The LC50 was 11.4 µg/mL (≈ 33 µM) in the data set with Trypanosoma cruzi [6] and 14 µg/mL (≈ 40.5 µM) in the data set with Trypanosoma cruzi [11]. In addition, the viability in [9] amounted to 70.7%.

As to `NC(=S)N/N=C/c1ccc(Sc2cccc(C(F)(F)F)c2)o1`, in data set [1], the viability at 10 min amounted to 90.9%. Also, the Activity in data set [2] was 2.57%; in data set [3] it was 22.9%; in data set [4], 19.06%; in [5], 8.87%; in data set [7], 7.87%; in [8], 0.17%. Besides, the Activity in [10] was determined as 0.05%. In addition, the LC50 in the data set with Trypanosoma cruzi [6] was determined as 17.8 µg/mL (≈ 51.5 µM); in the data set with Trypanosoma cruzi [11] it was 7.8 µg/mL (≈ 22.6 µM). Also, the viability in data set [9] turned out to be 66.7%.

As to `NC(=S)N/N=C/c1ccc(Sc2ccc(C(F)(F)F)cc2)o1`, the viability at 10 min in data set [1] is 79.4%. Further, the Activity is recorded as 1.18% in data set [2]; 21.44% in data set [3]; 18.56% in data set [4]; 20.39% in data set [5]; 4.48% in data set [7]; 0.16% in data set [8]. The Activity in data set [10] came out at 0.08%. For the same compound, the values for the LC50 in the data set on Trypanosoma cruzi [6] and in the data set on Trypanosoma cruzi [11] were 8.3 µg/mL (≈ 24 µM) and 29.5 µg/mL (≈ 85.4 µM), respectively. For the same compound, in data set [9], the viability amounted to 72.9%.

With `NC(=S)N/N=C/c1ccc(Sc2ccc(C(F)(F)F)cc2[N+](=O)[O-])o1`, in data set [1], the viability at 10 min was found to be 87.2%. Also, the Activity in data set [2] is listed as 0.7%; in data set [3], 17.05%; in data set [4], 23.63%; in [5], 12.48%; in data set [7] it was 2.81%; in data set [8], 0.09%. In addition, in data set [10], the Activity amounted to 0.24%. Also, the LC50 was found to be 3.2 µg/mL (≈ 8.2 µM) in the data set on Trypanosoma cruzi [6] and 3.4 µg/mL (≈ 8.71 µM) in the data set on Trypanosoma cruzi [11]. Also, the viability in data set [9] worked out at 79.4%.

`NC(=S)N/N=C/c1ccc(Sc2c(F)c(F)c(C(F)(F)F)c(F)c2F)o1`: in data set [1], the viability at 10 min was 87.4%. Further, the Activity in [2] came to 0.62%; in data set [3], 21.91%; in data set [4], 23.35%; in [5] it was 12.55%; in data set [7], 4.76%; in data set [8], 0.04%. Moreover, the Activity in data set [10] is 0.03%. The LC50 came out at 5.1 µg/mL (≈ 12.2 µM) with Trypanosoma cruzi [6] and 4.6 µg/mL (≈ 11 µM) with Trypanosoma cruzi [11]. Moreover, the viability in [9] was determined as 72.7%.

In the case of `O=C(Cn1ccnc1[N+](=O)[O-])NCc1ccccc1` [BENZNIDAZOLE], the viability at 10 min in [1] came to 76.9%. The Activity in data set [2] amounted to 0.51%; in data set [3], 18.79%; in data set [4], 42.51%; in [5] it was 22.95%; in [7], 4.78%; in [8], 0.12%. Further, the Activity in data set [10] is given as 0.02%. Further, the LC50 was 4 µg/mL (≈ 15.4 µM) in the data set with Trypanosoma cruzi [6] and 6.5 µg/mL (≈ 25 µM) in the data set on Trypanosoma cruzi [11]. Moreover, the viability in data set [9] is 75.9%.

With `CN(C)c1ccc(C(=C2C=CC(=[N+](C)C)C=C2)c2ccc(N(C)C)cc2)cc1.[Cl-]` [GENTIAN VIOLET], the LC50 in the data set with Trypanosoma cruzi [6] was 15.8 µg/mL; in the data set with Trypanosoma cruzi [11], 6.2 µg/mL.
